What was measured:
human ANO1(abc) = molecular target: T1, human ANO1(abc) (Homo sapiens, UniProt Q5XXA6, DEL476-501); experiment: YFP fluorescence plate reader assay of iodide influx in ANO1 expressing FRT cells; format: cell-based; conditions: read-out: IC50 of ANO1 inhibition
T1 construct: expressed in transfected cells
T1 sequence (Q5XXA6 with tags, fused parts or gaps isoform Q5XXA6-5 DEL539-564): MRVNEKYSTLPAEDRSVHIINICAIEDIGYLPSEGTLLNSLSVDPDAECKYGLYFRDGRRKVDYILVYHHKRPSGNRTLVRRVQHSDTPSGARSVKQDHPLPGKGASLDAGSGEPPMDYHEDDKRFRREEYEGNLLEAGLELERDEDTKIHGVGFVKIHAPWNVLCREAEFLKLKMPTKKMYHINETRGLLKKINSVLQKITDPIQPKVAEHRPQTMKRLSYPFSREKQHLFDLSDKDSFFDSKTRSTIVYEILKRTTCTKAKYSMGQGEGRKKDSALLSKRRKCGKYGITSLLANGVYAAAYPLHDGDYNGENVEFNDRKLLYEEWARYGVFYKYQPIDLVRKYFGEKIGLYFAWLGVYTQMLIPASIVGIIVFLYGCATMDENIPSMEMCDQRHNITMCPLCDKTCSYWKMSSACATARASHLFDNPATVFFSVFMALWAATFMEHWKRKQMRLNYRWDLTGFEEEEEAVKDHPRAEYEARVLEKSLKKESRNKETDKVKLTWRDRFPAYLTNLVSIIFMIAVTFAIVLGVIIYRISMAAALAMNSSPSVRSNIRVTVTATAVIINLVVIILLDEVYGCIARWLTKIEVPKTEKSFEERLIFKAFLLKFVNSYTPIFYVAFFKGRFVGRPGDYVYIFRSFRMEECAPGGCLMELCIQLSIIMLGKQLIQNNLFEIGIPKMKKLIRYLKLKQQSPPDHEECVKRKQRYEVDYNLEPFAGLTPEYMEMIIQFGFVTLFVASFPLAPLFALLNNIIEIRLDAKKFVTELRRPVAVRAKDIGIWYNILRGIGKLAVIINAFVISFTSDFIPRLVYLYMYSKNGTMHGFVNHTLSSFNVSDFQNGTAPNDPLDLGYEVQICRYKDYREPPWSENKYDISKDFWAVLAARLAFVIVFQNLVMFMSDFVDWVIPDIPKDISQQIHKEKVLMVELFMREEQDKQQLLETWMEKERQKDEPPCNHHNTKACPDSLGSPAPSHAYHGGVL
Procedure: Cell based screening was performed as described in previous study. Briefly, ANO1 and YFP expressing FRT cells were plated in 96-well black-walled microplates (Corning Inc., Corning, NY) at a density of 20,000 cells per well, and then cultured for 2 days. Assays were done using FLUOstar Omega microplate reader (BMG Labtech, Ortenberg, Germany) and MARS Data Analysis Software (BMG Labtech). Each well of 96-well plate was washed 3 times in PBS (200 μL/wash), leaving 100 μL PBS. Test compounds (1 μL) were added to each well at 25 μM final concentration. After 10 min, 96-well plates were transferred to a plate reader for fluorescence assay. Each well was assayed individually for TMEM16A-mediated I^- influx by recording fluorescence continuously (400 ms per point) for 1 s (baseline), then 100 μL of 140 mM I^- solution containing 200 μM ATP was added at 1 s and then YFP fluorescence was recorded for 5 s. Initial iodide influx rate was determined from the initial slope of fluorescence decrease, by nonlinear regression, following infusion of iodide with ATP.
ANO1 chloride channel activity was measured using Fischer rat thyroid (FRT) cells stably expressing human ANO1(abc) and the genetically encoded iodide-sensing fluorescent protein, YFP-F46L/H148Q/I152L. This cell model was used because of our prior success in ANO1 chloride channel drug discovery. For the screening to identify ANO1 inhibitors, the FRT cells were pre-incubated with test compounds for 10 minutes prior to addition of an iodide and ATP, an agonist of P2 purinergic receptor which induces an increase in intracellular calcium concentration and activation of ANO1, containing solution.

human wild-type CFTR = molecular target: T2, human wild-type CFTR (Homo sapiens, UniProt P13569); experiment: Apical membrane current in FRT cells expressing CFTR; format: cell-based; conditions: 10 μM, CFTR activated by 20 μM forskolin
T2 construct: expressed in transfected cells; host or cells: Fischer rat thyroid (FRT) cells
Procedure: (§1) Snapwell inserts containing ANO1, ANO2 or CFTR expressing FRT cells, ENaC expressing T-84 cells or the human primary airway epithelial cells were mounted in Ussing chambers (Physiologic Instruments, San Diego, CA). To induce transcriptional ENaC induction, the polarized T84 cells were incubated with 2 mM sodium butyrate for 2 days. To increase the functional expression of ANO1, the human airway epithelial cells were treated with IL-4 (10 ng/mL) for 2 days. For T-84 and the human primary airway epithelial cells, the apical and basolateral bath were filled with HCO3^—buffered solution containing (in mM): 120 NaCl, 5 KCl, 1 MgCl2, 1 CaCl2, 10 D-glucose, 2.5 HEPES, and 25 NaHCO3 (pH 7.4). For FRT cells, the basolateral bath was filled with the HCO3^—buffered solution and the apical bath was filled with a half-Cl^- solution. In the half-Cl^- solution 65 mM NaCl in the HCO3^—buffered solution was replaced by Na-gluconate. […] ATP was applied to the apical bath solution to induce intracellular calcium increase. […] Apical membrane currents were measured with an EVC4000 Multi-Channel V/I Clamp (World Precision Instruments, Sarasota, FL) and PowerLab 4/35 (AD Instruments, Castle Hill, Australia). Data were analyzed using Labchart Pro 7 (AD Instruments). The sampling rate was 4 Hz.
ANO1 was activated by either 10 μM Eact, an ANO1 activator, or 100 μM ATP.

VRAC [1] = experiment: VRAC activity by YFP quenching in LN215 cells; format: cell-based, human; conditions: 10 μM
Procedure: LN215 cells, a human glioma cell line, were stably transfected with YFP-F46L/H148Q/I152L, a halide sensor YFP. After the cells were incubated on 96well black plates (Corning Inc., Corning, NY) for 48 hours, each well of the 96-well plate was washed 3 times in PBS (200 μL/wash), and the wells were filled with 50 μl/well isotonic solution (in mM): 140 NaCl, 5 KCl, 20 HEPES (310 mOsm/kg; pH 7.4 with NaOH). In each well, VRAC expressed on the cells were stimulated with addition of 50 μl of hypotonic solutions (in mM): 5 KCl, 20 HEPES, 90 mannitol (120 mOsm/kg). Test compounds (1 μL) were added to each well in a dose dependent manner. After 5 min, 96-well plates were transferred to a plate reader for fluorescence assay. Each well was assayed individually for VRAC-mediated I^- influx by recording fluorescence continuously (400 ms per point) for 7.6 s. YFP fluorescence was recorded 0.4 s for baseline, then 100 μL of 140 mM I^- solution was added at 0.4 s to see the change in fluorescence. Initial iodide influx rate was determined from the initial slope of fluorescence decrease, by nonlinear regression, following infusion of iodide.

ANO2 = molecular target: T3, ANO2 (Mus musculus, UniProt Q8CFW1); experiment: Apical membrane current in FRT-ANO2 cells; format: cell-based; conditions: 10 μM pretreatment
T3 sequence (Q8CFW1 1-1002): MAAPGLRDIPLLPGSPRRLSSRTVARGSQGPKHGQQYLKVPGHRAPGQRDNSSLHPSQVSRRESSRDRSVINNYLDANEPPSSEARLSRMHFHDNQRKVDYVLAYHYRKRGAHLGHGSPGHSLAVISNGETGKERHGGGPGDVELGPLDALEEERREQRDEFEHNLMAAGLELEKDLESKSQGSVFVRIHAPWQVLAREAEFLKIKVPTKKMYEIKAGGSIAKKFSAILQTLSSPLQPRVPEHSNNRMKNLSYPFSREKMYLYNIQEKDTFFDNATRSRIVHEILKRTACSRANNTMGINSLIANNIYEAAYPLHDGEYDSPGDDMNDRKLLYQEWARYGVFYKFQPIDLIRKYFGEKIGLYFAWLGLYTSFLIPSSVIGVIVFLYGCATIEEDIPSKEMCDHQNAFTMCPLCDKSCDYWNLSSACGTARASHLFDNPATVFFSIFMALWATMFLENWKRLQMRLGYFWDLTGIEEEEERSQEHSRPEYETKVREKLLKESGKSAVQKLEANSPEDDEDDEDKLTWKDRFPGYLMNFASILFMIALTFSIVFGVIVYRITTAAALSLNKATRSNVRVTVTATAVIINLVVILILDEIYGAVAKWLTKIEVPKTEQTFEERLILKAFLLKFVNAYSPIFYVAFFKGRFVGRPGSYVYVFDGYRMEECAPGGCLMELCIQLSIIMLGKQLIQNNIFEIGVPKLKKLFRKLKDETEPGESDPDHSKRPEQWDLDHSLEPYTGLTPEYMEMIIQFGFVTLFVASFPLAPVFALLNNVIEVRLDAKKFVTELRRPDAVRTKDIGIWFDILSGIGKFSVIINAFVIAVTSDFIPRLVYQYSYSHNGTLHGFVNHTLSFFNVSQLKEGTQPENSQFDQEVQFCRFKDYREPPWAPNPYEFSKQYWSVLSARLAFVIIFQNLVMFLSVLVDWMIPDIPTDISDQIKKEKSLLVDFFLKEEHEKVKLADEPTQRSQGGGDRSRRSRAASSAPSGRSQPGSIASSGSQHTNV
Procedure: as §1
ANO1 belongs to anoctamin gene family which contains ten members presenting eight-pass transmembrane segments with cytosolic N- and C-terminals. ANO2 shares a high level of amino acid homology to ANO1 (~60%) and, ANO1 and ANO2 are confirmed CaCCs. However, the roles of other family members (ANO3-ANO10) remain poorly understood and controversial. […] We investigated the effect of these inhibitors on ANO2-mediated apical membrane current in FRT-ANO2 cells.

ANO1 = molecular target: T4, ANO1 (Homo sapiens, UniProt Q5XXA6, DEL476-501); experiment: Apical membrane current in ANO1 expressing FRT cells; format: cell-based; conditions: 100 μM ATP
T4 construct: expressed in transfected cells
T4 sequence (Q5XXA6 with tags, fused parts or gaps isoform Q5XXA6-5 DEL539-564): T1 sequence (Q5XXA6 with tags, fused parts or gaps isoform Q5XXA6-5 DEL539-564)
Procedure: as §1

mouse ANO2 = molecular target: T5, mouse ANO2 (Mus musculus, UniProt Q8CFW1); experiment: YFP quenching assay in FRT cells expressing ANO2; format: cell-based; conditions: dose dependent, 100 μM ATP
T5 sequence (Q8CFW1 1-1002): T3 sequence (Q8CFW1 1-1002)

VRAC [2] = test system: VRAC; design: method as in PMID 24965069, PMID 25163766, PMID 26438191; conditions: ref [26]–[28]; cited from earlier work

T2 sequence (P13569 whole entry): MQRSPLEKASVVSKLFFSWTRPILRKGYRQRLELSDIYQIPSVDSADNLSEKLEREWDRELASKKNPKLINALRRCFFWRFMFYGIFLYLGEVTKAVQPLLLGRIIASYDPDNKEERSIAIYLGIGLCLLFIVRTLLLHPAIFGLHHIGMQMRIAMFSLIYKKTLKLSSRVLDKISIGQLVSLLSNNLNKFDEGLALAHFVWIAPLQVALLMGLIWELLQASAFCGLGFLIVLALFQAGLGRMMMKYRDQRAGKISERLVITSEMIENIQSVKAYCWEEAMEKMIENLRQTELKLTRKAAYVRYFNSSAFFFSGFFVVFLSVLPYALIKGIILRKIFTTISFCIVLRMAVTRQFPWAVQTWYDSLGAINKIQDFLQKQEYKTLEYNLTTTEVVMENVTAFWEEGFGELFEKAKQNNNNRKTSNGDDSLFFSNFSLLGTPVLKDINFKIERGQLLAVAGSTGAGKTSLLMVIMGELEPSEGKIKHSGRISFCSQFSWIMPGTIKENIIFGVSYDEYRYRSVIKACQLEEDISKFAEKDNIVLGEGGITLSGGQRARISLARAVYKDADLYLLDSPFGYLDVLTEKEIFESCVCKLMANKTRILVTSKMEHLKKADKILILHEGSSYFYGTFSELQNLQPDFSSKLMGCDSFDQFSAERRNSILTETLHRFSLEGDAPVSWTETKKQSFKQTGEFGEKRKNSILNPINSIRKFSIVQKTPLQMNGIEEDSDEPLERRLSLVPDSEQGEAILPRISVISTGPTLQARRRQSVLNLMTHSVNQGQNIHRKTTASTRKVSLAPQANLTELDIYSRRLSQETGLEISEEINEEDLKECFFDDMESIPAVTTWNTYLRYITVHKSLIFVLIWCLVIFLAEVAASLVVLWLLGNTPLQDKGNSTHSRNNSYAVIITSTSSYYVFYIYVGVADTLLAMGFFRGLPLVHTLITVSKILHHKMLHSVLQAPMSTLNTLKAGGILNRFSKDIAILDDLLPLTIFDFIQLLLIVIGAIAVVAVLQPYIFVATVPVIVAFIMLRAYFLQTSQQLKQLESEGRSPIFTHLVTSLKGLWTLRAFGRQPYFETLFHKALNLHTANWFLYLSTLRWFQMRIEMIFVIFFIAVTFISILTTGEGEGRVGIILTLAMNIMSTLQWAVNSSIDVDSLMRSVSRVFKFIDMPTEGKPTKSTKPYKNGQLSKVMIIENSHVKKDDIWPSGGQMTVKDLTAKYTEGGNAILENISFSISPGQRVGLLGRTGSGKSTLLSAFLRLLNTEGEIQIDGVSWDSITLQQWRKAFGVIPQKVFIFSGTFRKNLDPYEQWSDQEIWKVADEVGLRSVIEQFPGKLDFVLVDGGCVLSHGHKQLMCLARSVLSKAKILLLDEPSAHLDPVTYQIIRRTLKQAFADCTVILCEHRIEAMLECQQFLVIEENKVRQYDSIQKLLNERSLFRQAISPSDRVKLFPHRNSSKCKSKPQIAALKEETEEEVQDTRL

Compound | IC50 (human ANO1(abc)) [nM] | also measured
Cc1cc(Cl)ccc1OCC(=O)N/N=C/c1ccc(O)cc1 [#3] | 301 | 
COc1ccccc1/C=N/NC(=O)COc1ccc(Br)cc1OC [#4] | 438 | 
Cc1cc(Cl)ccc1OCC(=O)N/N=C/c1ccccc1O [#9] | 1020 | 
COc1ccccc1/C=N/NC(=O)COc1ccc(I)cc1 [#5] | 481 | 
CCc1ccc(Br)cc1/C=N/NC(=O)COc1ccc(Br)cc1 [#6] | 512 | 
CCOc1cc(I)cc(/C=N/NC(=O)COc2cccc(C)c2C)c1O [#8] | 894 | 
CCOc1ccc(Br)cc1/C=N/NC(=O)COc1ccc(Cl)cc1Cl [#1] | 194 | 
COc1ccc(OC)c(/C=N/NC(=O)COc2ccc(Cl)cc2C)c1 [#2] | 262 | 
CFTRinh-172 |  | effect on CFTR channel activity (human wild-type CFTR): inhibited
COc1cc(Nc2ccc([N+](=O)[O-])cc2C(=O)O)cc2ccccc12 [MONNA, N-((4-methoxy)-2-naphthyl)-5-nitroanthranilic acid] |  | inhibition of VRAC activity (VRAC [1]): 87.9 ± 1.7%; effect on ATP-induced ANO2 current (ANO2): strongly blocked; inhibition of ATP-induced ANO1 current (ANO1; 10 μM pretreatment): almost complete inhibition; IC50 (ANO1; apical membrane current, 20 min pretreatment, read-out: IC50 of ATP-induced ANO1 activation): 1950 ± 1160 nM; effect on ANO2 activity (mouse ANO2): potently blocked
Cc1cc(Cl)ccc1OCC(=O)N/N=C/c1ccc(O)cc1O [#7] | 572 | 
O=C(Nc1cc(C(F)(F)F)cc(C(F)(F)F)c1)Nc1ccc(Br)cc1-c1nnn[nH]1 [NS3728] |  | block of VRAC activity (VRAC [2]): potently blocked
